Laboratory results taken from EP1073651B1, “INDOLYL DERIVATIVES AS SEROTONERGIC AGENTS” (Wyeth, priority 1998, dated 1999).
Like-named read-outs stand apart in the source and are kept apart here.

Molecular target: T1, serotonin transporter (Rattus norvegicus, UniProt P31652)
T1 construct: from tissue; host or cells: frontal cortex membranes of male Sprague-Dawley rats
Test: Displacement of specifically bound 3H-paroxetine from rat cortical membranes (affinity for the serotonin transporter)
Format: binding
Experimental: The affinity of drugs for the serotonin transporter was determined by assessing the ability of agents to displace specifically bound 3H-paroxetine binding from rat cortical membranes. […] Briefly, frontal cortical membranes prepared from male S.D. rats were incubated with ^3H-paroxetine (0.1 nM) for 60 min at 25°C. All tubes also contained either vehicle, test compound (one to eight concentrations), or a saturating concentration of fluoxetine (10 µM) to define […]. All reactions are terminated by the addition of ice cold Tris buffer followed by rapid filtration using a Tom Tech filtration device to separate bound from free ^3H-paroxetine. […] Nonspecific binding was determined using fluoxetine.

[1] = compounds of formula 1, frontal cortical membranes from male S.D. rats, 3H-paroxetine 0.1 nM, 60 min at 25°C, Ki from IC50 by Cheng and Prusoff, read-out: Inhibition of [3H]-Paroxetine binding Ki

T1 sequence (P31652 whole entry): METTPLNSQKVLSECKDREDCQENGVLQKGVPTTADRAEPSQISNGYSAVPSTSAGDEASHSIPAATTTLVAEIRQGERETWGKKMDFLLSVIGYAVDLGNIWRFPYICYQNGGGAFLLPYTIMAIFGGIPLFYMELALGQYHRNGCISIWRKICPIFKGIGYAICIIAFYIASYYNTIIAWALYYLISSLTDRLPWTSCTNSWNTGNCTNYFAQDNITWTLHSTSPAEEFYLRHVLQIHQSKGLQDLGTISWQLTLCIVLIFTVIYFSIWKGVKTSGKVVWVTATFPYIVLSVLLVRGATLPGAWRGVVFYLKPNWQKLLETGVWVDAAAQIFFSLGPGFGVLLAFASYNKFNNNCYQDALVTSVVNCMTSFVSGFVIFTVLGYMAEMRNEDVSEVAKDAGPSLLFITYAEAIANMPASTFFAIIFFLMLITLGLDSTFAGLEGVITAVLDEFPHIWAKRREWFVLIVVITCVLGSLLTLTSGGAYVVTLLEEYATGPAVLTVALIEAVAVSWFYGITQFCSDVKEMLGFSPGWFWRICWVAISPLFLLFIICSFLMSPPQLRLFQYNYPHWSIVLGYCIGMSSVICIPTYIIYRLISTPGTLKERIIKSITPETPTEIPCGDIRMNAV

## COc1ccccc1N1CCN(CCN2CCC(Cc3c[nH]c4ccc(F)cc34)CC2)CC1 [Example 1, 5-Fluoro-3-(1-{2-[4-(2-methoxyphenyl)piperazin-1-yl]ethyl}piperidin-4-ylmethyl)-1H-indole]
[1]
  Ki: 4.8 nM

## COc1ccccc1N1CCN(CCN2CC=C(c3c[nH]c4ccccc34)CC2)CC1 [Example 6, 3-(1-{2-[4-(2-methoxyphenyl)piperazin-1-yl]ethyl} 1,2,3,6-tetrahydropyridin-4-yl)-1H-indole]
  Ki: 10 nM

## COc1ccccc1N1CCN(CCCN2CCC(Cc3c[nH]c4ccc(F)cc34)CC2)CC1 [Example 3, 5-Fluoro-3-(1-{3-[4-(2-methoxyphenyl)piperazin-1-yl]propyl}piperidin-4-ylmethyl)-1H-indole]
[1]
  Ki: 1.2 nM

## COc1ccccc1N1CCN(CCN2CC=C(c3c[nH]c4ccc(F)cc34)CC2)CC1 [Example 7, 5-Fluoro-3-(1-{2-[4-(2-methoxyphenyl)piperazin-1-yl]ethyl} 1,2,3,6-tetrahydropyridin-4-yl)-1H-indole]
  Ki: 19 nM
